Experimental data published in US6358948B1 (American Home Products Corporation, priority 1999, dated 2002).
Where “and” joins values, the source holds several entries; their conditions need not be identical. Equal values may be shown once. Read-outs that look alike come from different tables or passages of the source.

Tests used:
human PR = target: T1, human PR (Homo sapiens, UniProt P06401); assay: PRE-luciferase assay in CV-1 cells; format: cell-based; conditions: read-out: hPR CV-1 IC50
T1 construct: expressed in transfected cells; host or cells: CV-1 cells (electroporated with pLEM-hPR-B and pGL3-2xPRE-luciferase)
T1 sequence (P06401 1-933): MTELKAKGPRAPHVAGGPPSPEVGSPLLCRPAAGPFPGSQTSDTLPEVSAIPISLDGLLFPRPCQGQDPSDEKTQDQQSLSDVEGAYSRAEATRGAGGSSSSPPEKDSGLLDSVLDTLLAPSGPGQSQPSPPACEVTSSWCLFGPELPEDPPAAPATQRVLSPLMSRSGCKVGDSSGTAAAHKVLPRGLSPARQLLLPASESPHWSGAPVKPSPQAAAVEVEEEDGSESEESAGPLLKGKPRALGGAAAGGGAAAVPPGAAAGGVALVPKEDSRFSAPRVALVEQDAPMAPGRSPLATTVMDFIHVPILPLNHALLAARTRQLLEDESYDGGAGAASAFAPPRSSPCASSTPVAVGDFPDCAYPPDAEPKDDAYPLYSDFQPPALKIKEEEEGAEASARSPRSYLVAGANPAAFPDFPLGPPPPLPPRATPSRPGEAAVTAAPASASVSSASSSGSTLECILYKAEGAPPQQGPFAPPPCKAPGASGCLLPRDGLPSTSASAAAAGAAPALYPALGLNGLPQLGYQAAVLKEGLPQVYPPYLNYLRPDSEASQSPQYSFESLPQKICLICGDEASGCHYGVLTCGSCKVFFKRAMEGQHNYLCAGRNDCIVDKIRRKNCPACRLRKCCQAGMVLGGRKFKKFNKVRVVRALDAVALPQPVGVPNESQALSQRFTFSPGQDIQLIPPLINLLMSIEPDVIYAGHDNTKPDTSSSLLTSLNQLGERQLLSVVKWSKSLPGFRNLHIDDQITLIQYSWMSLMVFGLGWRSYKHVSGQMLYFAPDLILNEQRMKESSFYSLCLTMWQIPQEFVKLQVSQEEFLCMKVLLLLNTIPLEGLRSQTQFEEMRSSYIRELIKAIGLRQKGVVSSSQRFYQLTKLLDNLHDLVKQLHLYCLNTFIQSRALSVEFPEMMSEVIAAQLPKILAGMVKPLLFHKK

[1] = system: rat uterine decidualization; assay: Rat decidualization assay; format: in vivo; conditions: for EC50: s.c., half-maximal increase in decidual response (uterine wet weight), ovariectomized rats, individual studies

| SMILES | melting point | also measured |
| --- | --- | --- |
| Cc1cc(C#N)sc1-c1ccc2c(c1)C(C)(C)OC(C)N2 (stereo not drawn) [Example 16, 4Methyl-5-(2,4,4-trimethyl-1,4-dihydro-2H-3,1-benzoxazin-6-yl)thiophene-2-carbonitrile] | 145 to 146 °C | – |
| CC1OC(C)(C)Nc2ccc(-c3cccc([N+](=O)[O-])c3)cc21 (stereo not drawn) [Compound 3, 6-(3-Nitro-phenyl)-2,2,4,-trimethyl-1,4-dihydro-2H-benzo[d][1,3]oxazine] | – | IC50 (human PR; CV-1 cells co-transfected with human PR and PRE-luciferase, decrease in 3 nM progesterone induced PRE-luciferase activity): 1.68 µM |
| CC1(C)OC(C(F)(F)F)Nc2ccc(-c3cc(F)cc(C#N)c3)cc21 (stereo not drawn) [Example 32, 3-[4,4-Dimethyl-2-(trifluoromethyl)-1,4-dihydro-2H-3,1-benzoxazin-6-yl]-5-fluorobenzonitrile] | 102 to 103 °C | – |
| CC1OC(C)(C)c2cc(-c3ccc(C#N)n3C(=O)OC(C)(C)C)ccc2N1C(=O)OCC1c2ccccc2-c2ccccc21 (stereo not drawn) [Example 19, 9H-Fluoren-9-ylmethyl-6-[1-(tert-butoxycarbonyl)-5-cyano-1H-pyrrol-2-yl]-2,4,4-trimethyl-2H-3,1-benzoxazine-1(4H)-carboxylate] | 135 to 136 °C | – |
| CC1Nc2ccc(-c3cc(F)cc(C#N)c3)cc2C(C)(C)O1 (stereo not drawn) [Example 14, 3-Fluoro-5-(2,4,4-trimethyl-1,4-dihydro-2H-3,1-benzoxazin-6-yl)benzonitrile] | 163 to 164 °C | – |
| CC1OC(C)(C)c2cc(-c3ccc(C#N)n3C)ccc2N1C(=O)OCC1c2ccccc2-c2ccccc21 (stereo not drawn) [Example 21, 9H-Fluoren-9-ylmethyl 6-(5-cyano-1-methyl-1H-pyrrol-2-yl)-2,4,4-trimethyl-2H-3,1-benzoxazine-1(4H)-carboxylate] | 63 to 64 °C | – |
| CC1Nc2ccc(-c3csc(C#N)c3)cc2C(C)(C)O1 (stereo not drawn) [Example 15, 4-(2,4,4-Trimethyl-1,4-dihydro-2H-3,1-benzoxazin-6-yl)thiophene-2carbonitrile] | 175 to 176 °C | – |
| C#C[C@]1(O)CC[C@H]2[C@@H]3CCC4=CC(=O)CC[C@@H]4[C@H]3CC[C@@]21CC [Levonorgestrel] | – | EC50 [1]: 0.08 mg/kg and 0.12 mg/kg and 0.09 mg/kg (2×) |
| CC1Nc2ccc(-c3ccc(F)c(C#N)c3)cc2C(C)(C)O1 (stereo not drawn) [Example 30, 2-Fluoro-5-(2,4,4-trimethyl-1,4-dihydro-2H-3,1-benzoxazin-6-yl)benzonitrile] | 184 to 186 °C | – |
| C#C[C@]1(O)CC[C@H]2[C@@H]3CCC4=CC(=O)CC[C@@H]4[C@H]3C(=C)C[C@@]21CC [3-Ketodesogestrel] | – | EC50 [1]: 0.10 mg/kg and 0.06 mg/kg and 0.11 mg/kg |
| CC1Nc2ccc(-c3ccc(C#N)[nH]3)cc2C(C)(C)O1 (stereo not drawn) [Example 20, 5-(2,4,4-Trimethyl-1,4-dihydro-2H-3,1-benzoxazin-6-yl)-1H-pyrrole-2-carbonitrile] | 201 to 202 °C | – |
| Cc1cc(C#N)sc1-c1ccc2c(c1)C(C)(C)OC(C(F)(F)F)N2 (stereo not drawn) [Example 38, 5-[4,4-Dimethyl-2-(trifluoromethyl)-1,4-dihydro-2H-3,1-benzoxazin-6-yl]-4-methylthiophene-2-carbonitrile] | 97 to 98 °C | – |
| CC1(C)OC(C)(C(F)(F)F)Nc2ccc(-c3cccc(Cl)c3)cc21 (stereo not drawn) [Compound 2, 6-(3-Chloro-phenyl)-2,4,4-trimethyl-2-trifluoromethyl-1,4-dihydro-2H-benzo[d][1,3]oxazine] | – | IC50 (human PR): 0.05 µM |
| CC1Nc2ccc(-c3csc(C#N)c3)cc2C2(CCCCC2)O1 (stereo not drawn) [Example 26, 4-(2-Methylspiro[2H-3,1-benzoxazine-4,1′-cyclohexane]-6-yl)2-thiophenecarbonitrile] | 111 to 112 °C | – |
| CC#C[C@]1(O)CC[C@H]2[C@@H]3CCC4=CC(=O)CCC4=C3[C@@H](c3ccc(N(C)C)cc3)C[C@@]21C [RU 486] | – | IC50 ([1]; p.o., half-maximal decrease in EC50 progesterone induced decidual response, rats): 0.21 mg/kg and 0.14 mg/kg |
| C[C@@H]1Nc2ccc(-c3cc(F)cc(C#N)c3)cc2[C@](C)(c2ccccc2)O1 [Example 17, 3-[(2R,4S)-2,4-Dimethyl-4-phenyl-1,4-dihydro-2H-3,1-benzoxazin-6yl]-5-fluorobenzonitrile] | 128 to 129 °C | – |
| CC1Nc2ccc(-c3coc(C#N)c3)cc2C(C)(C)O1 (stereo not drawn) [Example 31, 4-(2,4,4-Trimethyl-1,4-dihydro-2H-3,1-benzoxazin-6-yl)2-furonitrile] | 116 to 118 °C | – |
| CC1Nc2ccc(-c3ccc(C#N)n3C)cc2C(C)(C)O1 (stereo not drawn) [Example 22, 1-Methyl-5-(2,4,4-trimethyl-1,4-dihydro-2H-3,1-benzoxazin-6-yl)-1H-pyrrole-2-carbonitrile] | 195 to 196 °C | – |

Further lines, with some results ahead:

| melting point | SMILES | also measured |
| --- | --- | --- |
| 108 to 109 °C | CC1(C)OC(C(F)(F)F)Nc2ccc(-c3cccc(Cl)c3)cc21 (stereo not drawn) [Example 39, 6-(3-Chlorophenyl)-4,4-dimethyl-2-(trifluoromethyl)-1,4-dihydro-2H-3,1-benzoxazine] | – |
| 209 to 211 °C | CC1(C)CC(=S)Nc2ccc(-c3cccc(F)c3)cc21 [Example 44, 6-(3-Fluorophenyl)-4,4-dimethyl-3,4-dihydroquinoline-2(1H)-thione] | – |
| 211 to 215 °C | CC1(C)CC(=O)Nc2ccc(-c3cccc(Cl)c3)cc21 [Example 11, 6-(3-Chloro-phenyl)-4,4-dimethyl-3,4-dihydro-1H-quinolin-2-one] | – |
| 193 to 194 °C | CN1C(=O)Nc2ccc(-c3cccc(Cl)c3)cc2C1(C)C1CC1 (stereo not drawn) [Example 10, 6-(3-Chlorophenyl)-4-cyclopropyl-3,4-dimethyl-3,4-dihydro-1H-quinazolin-2-one] | – |
| 173 to 175 °C | CC1Nc2ccc(-c3ccc(F)c(Cl)c3)cc2C(C)(C)O1 (stereo not drawn) [Example 29, 6-(3-Chloro-4-fluorophenyl)-2,4,4-trimethyl-1,4-dihydro-2H-3,1-benzoxazine] | – |
| 240 to 242 °C (dec.) | CC1(C)CC(=S)Nc2ccc(-c3cc(F)cc(C#N)c3)cc21 [Example 46, 3-(4,4-Dimethyl-2-thioxo-1,2,3,4-tetrahydroquinolin-6-yl)-5-fluorobenzonitrile] | – |
| 125 to 127 °C | CC1(C2CC2)NC(=O)Nc2ccc(-c3cccc(Cl)c3)cc21 (stereo not drawn) [Example 9, 6-(3-Chlorophenyl)-4-cyclopropyl-4-methyl-3,4-dihydro-1H-quinazolin-2-one] | – |
| 139 to 140 °C | CC1Nc2ccc(-c3cccc(F)c3)cc2C(C)(C)O1 (stereo not drawn) [Example 27, 6-(3-Fluorophenyl)-2,4,4-trimethyl-1,4-dihydro-2H-3,1-benzoxazine] | – |
| 197 to 198 °C | CC1(C)CC(=S)Nc2ccc(-c3cccc(Cl)c3)cc21 [Example 43, 6-(3-Chlorophenyl)-4,4-dimethyl-3,4dihydroquinoline-2(1H)-thione] | – |
| 249 to 250 °C | CC1(C)CC(=O)Nc2ccc(-c3cc(F)cc(C#N)c3)cc21 [Example 41, 3-(4,4-Dimethyl-2-oxo-1,2,3,4-tetrahydroquinolin-6-yl)-5-fluorobenzonitrile] | – |
| 144 to 146 °C | CC1Nc2ccc(-c3cccc(Cl)c3)cc2C(C)(C)O1 (stereo not drawn) [Example 28, 6-(3-Chlorophenyl)-2,4,4-trimethyl-1,4-dihydro-2H-3,1-benzoxazine] | – |
| 190 to 192 °C | CC1(C)CC(=O)Nc2ccc(-c3cccc(F)c3)cc21 [Example 40, 6-(3-Fluorophenyl)-4,4-dimethyl-3,4-dihydroquinolin-2(1H)one] | – |
